In US20240408093A1, “HETEROBIFUNCTIONAL COMPOUNDS AND THEIR USE IN TREATING DISEASE” (HALDA THERAPEUTICS OPCO, INC., priority 2022, published 2024):

Legend:
[1] = biological target: T1, EGFR WT (amino acids 669-1011) (Homo sapiens, UniProt P00533); assay: KdELECT binding assay, EGFR WT
T1 construct: purchased Eurofins Discovery (KdELECT); host or cells: bacteria (E. coli BL21-derived, T7 phage)
Protocol: Exemplary compounds were tested for ability to bind to EGFR WT (amino acids 669-1011, Accession Number NP_005219.2) or EGFR T790M, L858R (amino acids 669-1011 Accession Number NP_005219.2) expressed from bacteria or mammalian cells, respectively. Compounds were tested using the KdELECT assay at Eurofins Discovery.
Kinase-tagged T7 phage strains were prepared in an E. coli host derived from the BL21 strain. E. coli were grown to log-phase and infected with T7 phage and incubated with shaking at 32° C. until lysis. The lysates were centrifuged and filtered to remove cell debris. The remaining kinases were produced in HEK-293 cells and subsequently tagged with DNA for qPCR detection. Streptavidin-coated magnetic beads were treated with biotinylated small molecule ligands for 30 minutes at room temperature to generate affinity resins for kinase assays. The liganded beads were blocked with excess biotin and washed with blocking buffer (SeaBlock (Pierce), 1% BSA, 0.05% Tween 20, 1 mM DTT) to remove unbound ligand and to reduce non-specific binding. Binding reactions were assembled by combining kinases, liganded affinity beads, and test compounds in 1x binding buffer (20% SeaBlock, 0.17× PBS, 0.05% Tween 20, 6 mM DTT). Test compounds were prepared as 111× stocks in 100% DMSO. Kd values were determined using an 11-point 3-fold compound dilution series with three DMSO control points. All compounds for Kd measurements are distributed by acoustic transfer (non-contact dispensing) in 100% DMSO. The compounds were then diluted directly into the assays such that the final concentration of DMSO was 0.9%. All reactions performed in polypropylene 384-well plate. Each was a final volume of 0.02 mL. The assay plates were incubated at room temperature with shaking for 1 hour and the affinity beads were washed with wash buffer (1× PBS, 0.05% Tween 20). The beads were then re-suspended in elution buffer (1× PBS, 0.05% Tween 20, 0.5 μM nonbiotinylated affinity ligand) and incubated at room temperature with shaking for 30 minutes. The kinase concentration in the eluates was measured by qPCR.

[2] = biological target: T2, EGFR T790M/L858R kinase domain (Homo sapiens, UniProt P00533, L858R/T790M); assay: EGFR cellular target engagement assay (HEK293 cells stable for EGFR T790M, L858R); type: cell-based; conditions: 6 hours, read-out: TE50 (the source's name)
T2 construct: EGFR (amino acids 696-1022, T790M, L858R); expressed in transfected cells; host or cells: HEK293, lentiviral transduction, puromycin selection
Protocol: HEK293 cells were cultured in DMEM (Gibco 11995), supplemented with 10% Heat-inactivated FBS (Gibco A38400-01) and 1% Penicillin/Streptomycin (Gibco 15140-122) at 37° C. with 5% CO2 in a humidified tissue culture incubator. Cells were made stable for EGFR (amino acids 696-1022, T790M, L858R) by lentiviral transduction, followed by selection with 1 μg/ml Puromycin Dihydrochloride (Thermo A1113803). Cells were seeded at 30,000 cells/ml in 0.1 ml of complete media in Poly-D-lysine-treated 96-well plates and incubated overnight. Cells were treated with increasing concentrations of compound and let incubate at 37C and 5% CO2 for 6 hours, after which media was aspirated, washed with 1×PBS and cells were lysed in RIPA Lysis and Extraction Buffer (Thermo 89901) supplemented with 5 mM MgCl2, Protease and Phosphatase inhibitor cocktail (Thermo 1861281), and Universal Nuclease (Thermo 88700). Plates with RIPA were shaken at 4° C. at 600 rpm for 15 min. After shaking samples, they were collected and spun down at 21,000 g for 15 min at 4° C. Following centrifugation, […] of lysate was added to Laemmli Sample Buffer (Bio-Rad 1610747) plus 10% beta-mercaptoethanol, boiled for 15 minutes at 65° C. and loaded onto 4-20% Mini-PROTEAN TGX™ Precast Protein Gels (Bio-Rad). Protein was transferred to a nitrocellulose membrane (Thermo LC2000) using the iBlot 2 Dry Blotting System (Thermo). After transfer, membranes were washed in 1× TBST (Bioland Scientific LLC TBST0103) 3× for 5 min. Following the wash, blocking buffer (Rockland MB-070) was added for 1 hour at room temperature. Primary antibodies against EGFR (Cell Signaling Technology 3197) and actin (Cell Signaling Technology 3700S) were added overnight at 4° C. Membranes were then washed again 3× for 5 min in 1× TBST. Secondary antibodies (LI-COR 926-68072 and 926-68073) were added and shaken for 1 hr at room temperature. Membranes were then washed 3× for 5 min in 1×TBST and developed. Membranes were placed on an Odyssey imager (LI-COR).

T2 sequence (P00533 696-1022 T790M/L858R): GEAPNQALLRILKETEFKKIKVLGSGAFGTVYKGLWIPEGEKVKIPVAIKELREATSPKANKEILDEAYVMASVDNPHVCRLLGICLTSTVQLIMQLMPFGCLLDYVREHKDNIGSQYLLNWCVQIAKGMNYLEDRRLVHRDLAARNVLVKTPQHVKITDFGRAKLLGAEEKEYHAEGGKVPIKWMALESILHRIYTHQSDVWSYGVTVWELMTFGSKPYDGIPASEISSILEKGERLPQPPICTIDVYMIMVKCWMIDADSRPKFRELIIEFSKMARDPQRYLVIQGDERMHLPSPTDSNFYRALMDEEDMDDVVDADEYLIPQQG
T1 sequence (P00533 669-1011): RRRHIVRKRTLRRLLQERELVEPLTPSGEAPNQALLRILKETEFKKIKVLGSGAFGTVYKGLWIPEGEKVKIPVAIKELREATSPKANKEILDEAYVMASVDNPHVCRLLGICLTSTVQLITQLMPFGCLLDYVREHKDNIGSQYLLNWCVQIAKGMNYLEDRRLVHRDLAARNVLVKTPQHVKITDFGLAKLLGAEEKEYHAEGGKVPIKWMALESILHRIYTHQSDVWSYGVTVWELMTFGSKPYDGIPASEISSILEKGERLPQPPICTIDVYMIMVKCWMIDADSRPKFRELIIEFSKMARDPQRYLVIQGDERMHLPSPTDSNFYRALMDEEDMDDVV

Question: How did the Kd [1] turn out when C=C(COc1ccc(Cl)cc1NC(=O)NCc1ccc2c(c1)CN(C1CCC(=O)NC1=O)C2=O)C(=O)N[C@@H]1CN(c2nc(Nc3cn(C)nc3OC)c3ncn(C)c3n2)C[C@H]1F (stereo partly drawn) [Compound I-47] was run?
Answer: < 0.05 µM

Question: And the EC50 [2]?
Answer: 0.25 to 5 µM

Question: What does the source list for C=C(COC(=O)N1CCN(c2nc(NCc3nc4cc(C)ccc4[nH]3)n3ncc(Br)c3n2)CC1)C(=O)N1C[C@H](COc2nc(Nc3cnn(C)c3)nc3[nH]cc(Cl)c23)[C@@H](OC)C1 [II-185]?
Answer: Kd [1]: > 2.5 µM; EC50 [2]: > 10 µM

Question: For C=C(CN1C(=O)CCC(N2Cc3cc(CNC(=O)Nc4ccc(C)c(Cl)c4)ccc3C2=O)C1=O)C(=O)Nc1cc(Nc2ncc(-c3cn(C)c4ccccc34)cn2)c(OC)cc1N(C)CCN(C)C (stereo not drawn) [Compound I-87], which Kd [1] is on record?
Answer: > 2.5 µM

Question: And the EC50 [2]?
Answer: < 0.25 µM

Question: For C=C(CN(C(=O)NCc1ccc2c(c1)CN(C1CCC(=O)NC1=O)C2=O)c1ccc(C)c(Cl)c1)C(=O)Nc1cc(Nc2ncc(-c3cn(C)c4ccccc34)cn2)c(OC)cc1N(C)CCN(C)C (stereo not drawn) [Compound I-42], which Kd [1] is on record?
Answer: > 2.5 µM

Question: What about the EC50 [2] of the same compound?
Answer: 5 to 10 µM

Question: Which results are given for C=C(COc1cc(-c2ccccn2)ccc1CNc1nc(N[C@H](CC)CO)nc2c1ncn2C(C)C)C(=O)N[C@@H]1CN(c2nc(Nc3cn(C)nc3OC)c3ncn(C)c3n2)C[C@H]1F [II-183]?
Answer: Kd [1]: 0.05 to 0.5 µM; EC50 [2]: 0.25 to 5 µM

Question: Which results are given for C=C(COc1cc(Cl)cc(NC(=O)NCc2ccc3c(c2)CN(C2CCC(=O)NC2=O)C3=O)c1)C(=O)Nc1cccc(Oc2nc(Nc3ccc(N4CCN(C)CC4)cc3)nc3ccsc23)c1 (stereo not drawn) [Compound I-55]?
Answer: Kd [1]: > 2.5 µM; EC50 [2]: > 10 µM

Question: With C=C(CN(C(=O)NCc1ccc2c(c1)CN(C1CCC(=O)NC1=O)C2=O)c1ccc(C)c(Cl)c1)C(=O)N1C[C@@H](COc2nc(Nc3cnn(C)c3)nc3[nH]cc(Cl)c23)[C@H](OC)C1 (stereo partly drawn) [Compound I-71] as the compound, how does the EC50 [2] read?
Answer: > 10 µM

Question: C=C(COc1cc(Cl)cc(NC(=O)NCc2ccc3c(c2)CN(C2CCC(=O)NC2=O)C3=O)c1)C(=O)N[C@@H]1CN(c2nc(Nc3cn(C)nc3OC)c3ncn(C)c3n2)C[C@H]1F (stereo partly drawn) [Compound I-45] was tested. Which Kd [1] did it give?
Answer: 0.05 to 0.5 µM

Question: With C=C(CN1CCN(c2nc(NCc3nc4cc(C)ccc4[nH]3)n3ncc(Br)c3n2)CC1)C(=O)Nc1cc(Nc2nccc(-c3cn(C)c4ccccc34)n2)c(OC)cc1N(C)CCN(C)C [II-188] as the compound, how does the Kd [1] read?
Answer: < 0.05 µM

Question: And the EC50 [2]?
Answer: < 0.25 µM

Question: Which Kd [1] does the source give for C=C(CN1CCN(c2nc(NCc3nc4cc(C)ccc4[nH]3)n3ncc(Br)c3n2)CC1)C(=O)Nc1cccc(-c2cccc3cnc(Nc4ccc(N5CCN(CCO)CC5)c(F)c4F)nc23)c1 [II-191] here?
Answer: > 2.5 µM

Question: And the EC50 [2]?
Answer: > 10 µM

Question: Which Kd [1] does the source give for C=C(COc1cc(Cl)cc(NC(=O)NCc2ccc3c(c2)CN(C2CCC(=O)NC2=O)C3=O)c1)C(=O)Nc1cccc(-c2cccc3cnc(Nc4ccc(N5CCN(CCO)CC5)c(F)c4F)nc23)c1 (stereo not drawn) [Compound I-61] here?
Answer: 0.5 to 2.5 µM

Question: What about the EC50 [2] of the same compound?
Answer: > 10 µM

Question: Which results are given for C=C(COc1cc(Cl)cc(NC(=O)NCc2ccc3c(c2)CN(C2CCC(=O)NC2=O)C3=O)c1)C(=O)Nc1cc(Nc2nccc(-c3cn(C)c4ccccc34)n2)c(OC)cc1N(C)CCN(C)C (stereo not drawn) [Compound I-59]?
Answer: Kd [1]: < 0.05 µM; EC50 [2]: 0.25 to 5 µM

Question: Which results are given for C=C(COc1cc(Cl)cc(NC(=O)NCc2ccc3c(c2)CN(C2CCC(=O)NC2=O)C3=O)c1)C(=O)N1C[C@H](COc2nc(Nc3cnn(C)c3)nc3[nH]cc(Cl)c23)[C@@H](OC)C1 (stereo partly drawn) [Compound I-54]?
Answer: Kd [1]: > 2.5 µM; EC50 [2]: 0.25 to 5 µM

Question: C=C(COC(=O)n1c(CNc2nc(N3CCNCC3)nc3c(Br)cnn23)nc2cc(C)ccc21)C(=O)N1C[C@H](COc2nc(Nc3cnn(C)c3)nc3[nH]cc(Cl)c23)[C@@H](OC)C1 [Compound V-4] was tested. Which Kd [1] did it give?
Answer: > 2.5 µM

Question: What about the EC50 [2] of the same compound?
Answer: > 10 µM

Question: Which Kd [1] does the source give for C=C(COc1c(Cl)cccc1NC(=O)NCc1ccc2c(c1)CN(C1CCC(=O)NC1=O)C2=O)C(=O)Nc1cc(Nc2nccc(-c3cn(C)c4ccccc34)n2)c(OC)cc1N(C)CCN(C)C (stereo not drawn) [Compound I-60] here?
Answer: 0.05 to 0.5 µM

Question: And the EC50 [2]?
Answer: < 0.25 µM

Question: C=C(CN(C(=O)NCc1ccc2c(c1)CN(C1CCC(=O)NC1=O)C2=O)c1ccc(C)c(Cl)c1)C(=O)Nc1cccc(Oc2nc(Nc3ccc(N4CCN(C)CC4)cc3)nc3ccsc23)c1 (stereo not drawn) [Compound I-70] was tested. Which EC50 [2] did it give?
Answer: > 10 µM

Question: With C=C(COc1c(Cl)cccc1NC(=O)NCc1ccc2c(c1)CN(C1CCC(=O)NC1=O)C2=O)C(=O)N[C@@H]1CN(c2nc(Nc3cn(C)nc3OC)c3ncn(C)c3n2)C[C@H]1F (stereo partly drawn) [Compound I-69] as the compound, how does the EC50 [2] read?
Answer: 0.25 to 5 µM
